Test results published in patent US11701364B2, “Agonists of stimulator of interferon genes sting” (The Scripps Research Institute, priority 2018, dated 2023).

What follows are compounds tested against T1, STING (Stimulator of Interferon Genes) (Homo sapiens, UniProt Q86WV6, G230A/H232R/R293Q/R71H) (assay: ISG-LUC activation assay (ISRE-Luciferase assay in THP-1 Lucia ISG reporter cells)). Settings: THP-1 Lucia ISG cells, 24 hours, luciferase reporter; read-out: ISG-LUC activation assay (EC50).
T1 construct: host or cells: THP-1-Lucia ISG cells (human monocytic line)
T1 sequence (Q86WV6 whole entry R71H/G230A/H232R/R293Q): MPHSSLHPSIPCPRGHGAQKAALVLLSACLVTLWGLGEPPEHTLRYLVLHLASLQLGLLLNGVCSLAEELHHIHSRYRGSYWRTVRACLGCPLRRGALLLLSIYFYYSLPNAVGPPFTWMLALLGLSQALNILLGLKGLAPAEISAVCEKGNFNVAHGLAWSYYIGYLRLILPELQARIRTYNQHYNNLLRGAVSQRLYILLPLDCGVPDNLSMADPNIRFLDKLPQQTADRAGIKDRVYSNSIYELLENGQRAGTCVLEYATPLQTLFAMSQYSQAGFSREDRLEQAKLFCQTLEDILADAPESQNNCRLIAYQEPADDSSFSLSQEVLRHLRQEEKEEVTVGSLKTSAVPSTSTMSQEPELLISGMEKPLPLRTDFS
Assay type: cell-based
Description: This has been established using a primary assay involving a human THP-1 cell line carrying an IRF-inducible reporter with 5 copies of the IFN signaling response element. Counter screens, involving alternative reporter constructs, rodent cell-based assays, as well as cGAS and STING knock-out cell lines, are used to eliminate luciferase artifacts and ensure human-rodent cross species reactivity, as well as pathway selectivity. Biochemical assays, involving cGAS enzymatic activity and STING protein binding assays, are used to identify the specific target of identified hits.
THP-1 Lucia ISG cells were resuspended in low-serum growth media (2% FBS) at a density of 5×10^5 cells/ml and treated with test article or vehicle (DMSO). 50 μL of cells were seeded into each well of a 384-well white greiner plates and incubated for 24 hours. To evaluate expression of the luciferase reporter, 30 μl of Quanti-luc (Invivogen) detection reagent was added to each well and luminescence was read using an Envision plate reader (Perkin Elmer) set with an integration time of 0.1 seconds.
Work on `O=C(Nc1cc(F)c(OC(F)F)cc1C(=O)O)c1ccc(-n2ccnc2)nn1` [Compound 84] yielded an EC50 of 8.59 µM. Work on `O=C(Nc1ccc(C2CC2)cc1C(=O)O)c1ccc(-n2ccnc2)nn1` [Compound 85] yielded an EC50 of about 16.6 µM. `O=C(Nc1cc(C(F)(F)F)ccc1C(=O)O)c1ccc(-n2ccnc2)nn1` [Compound 86] was tested, and the EC50 was 10.3 µM. `O=C(Nc1cc(F)c(F)cc1C(=O)NC1CCC(O)(C(F)(F)F)CC1)c1ccc(-n2ccnc2)nn1` (stereo not drawn) [Compound 87] was tested, and the EC50 was over 20 µM. With `O=C(Nc1cc(F)c(F)cc1C(=O)NC1CCC(O)(C(F)(F)F)CC1)c1ccc(-n2ccnc2)nn1` (stereo not drawn) [Compound 88] the EC50 was 5.24 µM. For `Cc1ccc(NC(=O)c2ccc(-n3ccnc3)nn2)c(C(=O)O)c1` [Compound 89], the EC50 was over 20 µM. In the case of `O=C(Nc1ccc(C(F)(F)F)cc1C(=O)O)c1ccc(-n2ccnc2)nn1` [Compound 90], the EC50 is reported as over 20 µM. For `COC(=O)c1cccc(C)c1NC(=O)c1ccc(-n2ccnc2)nn1` [Compound 91], the EC50 was about 5.07 µM. In the case of `COC(=O)c1ccccc1NC(=O)c1ccc(-n2cnc(C#N)c2)nn1` [Compound 92], the EC50 is reported as about 5.26 µM. `COC(=O)c1ccccc1NC(=O)c1ccc(-n2cnc(C)c2)nn1` [Compound 93] was tested, and the EC50 was over 20 µM. For `CC(C)OC(=O)c1ccccc1NC(=O)c1ccc(-n2ccnc2)nn1` [Compound 95], the EC50 was 1.7 µM. `COC(=O)c1cccc(Cl)c1NC(=O)c1ccc(-n2ccnc2)nn1` [Compound 96] showed an EC50 of 21.1 µM. For `COC(=O)c1cc(Cl)cc(C)c1NC(=O)c1ccc(-n2ccnc2)nn1` [Compound 97], the EC50 was about 2.49 µM. Compound `COC(=O)c1cc2c(cc1NC(=O)c1ccc(-n3ccnc3)nn1)OCO2` [Compound 98] has an EC50 of 2.68 µM. With `COC(=O)c1c(F)ccc(Cl)c1NC(=O)c1ccc(-n2ccnc2)nn1` [Compound 99] the EC50 was 11.9 µM. With `COC(=O)c1c(Cl)cc(F)cc1NC(=O)c1ccc(-n2ccnc2)nn1` [Compound 100] the EC50 was 10.2 µM. For `Cc1cc(C(=O)O)c(NC(=O)c2ccc(-n3ccnc3)nn2)cc1C(F)(F)F` [Compound 102], the EC50 was 12.1 µM. Compound `O=C(Nc1cc(Cl)c(Cl)cc1C(=O)O)c1ccc(-n2ccnc2)nn1` [Compound 103] has an EC50 of 0.451 µM. In the case of `COC(=O)c1cc(C)ccc1NC(=O)c1ccc(-n2ccnc2)nn1` [Compound 104], the EC50 is reported as 0.426 µM. Work on `COC(=O)c1ccc(OC)cc1NC(=O)c1ccc(-n2ccnc2)nn1` [Compound 105] yielded an EC50 of 0.192 µM. Work on `COC(=O)c1cc(Cl)ccc1NC(=O)c1ccc(-n2ccnc2)nn1` [Compound 106] yielded an EC50 of 0.346 µM. `COC(=O)c1cc(F)c(F)cc1NC(=O)c1ccc(-n2ccnc2)nn1` [Compound 107] gave an EC50 of 0.415 µM. With `COC(=O)c1cnccc1NC(=O)c1ccc(-n2ccnc2)nn1` [Compound 108] the EC50 was 3.35 µM. `COC(=O)c1cc(O)ccc1NC(=O)c1ccc(-n2ccnc2)nn1` [Compound 109] was tested, and the EC50 was 8.95 µM. Work on `CCOC(=O)c1cc[nH]c1NC(=O)c1ccc(-n2ccnc2)nn1` [Compound 110] yielded an EC50 of 16.9 µM. Work on `Cc1cc(NC(=O)c2ccc(-n3ccnc3)nn2)c(C(=O)O)cc1C` [Compound 111] yielded an EC50 of 7.25 µM. With `CCOC(=O)C1=C(NC(=O)c2ccc(-n3ccnc3)nn2)CCCC1` [Compound 112] the EC50 was 1.5 µM. In the case of `CCOC(=O)C1=C(NC(=O)c2ccc(-n3ccnc3)nn2)CCC1` [Compound 113], the EC50 is reported as 18.7 µM. For `COC(=O)c1cc2c(cc1NC(=O)c1ccc(-n3ccnc3)nn1)CCCC2` [Compound 114], the EC50 was 4.35 µM. Compound `Cc1ccc(NC(=O)c2ccc(-n3ccnc3)nn2)c(C(O)(C(F)(F)F)C(F)(F)F)c1` [Compound 115] has an EC50 of 7.36 µM. Compound `CCOC(=O)c1cc2c(nc1NC(=O)c1ccc(-n3ccnc3)nn1)CCN(C)C2` [Compound 116] has an EC50 of 3.46 µM. `COC(=O)c1cc2[nH]ncc2cc1NC(=O)c1ccc(-n2ccnc2)nn1` [Compound 117] gave an EC50 of about 2.57 µM. `O=C(Nc1ccccc1-c1noc(O)n1)c1ccc(-n2ccnc2)nn1` [Compound 118] was tested, and the EC50 was 3.97 µM. Compound `COC(=O)c1nn(C)cc1NC(=O)c1ccc(-n2ccnc2)nn1` [Compound 119] has an EC50 of 5.89 µM. `CCOC(=O)C1=C(NC(=O)c2ccc(-n3ccnc3)nn2)CCCCC1` [Compound 120] was tested, and the EC50 was over 50 µM. Compound `O=C(Nc1ccc2ccccc2c1C(O)(C(F)(F)F)C(F)(F)F)c1ccc(-n2ccnc2)nn1` [Compound 121] has an EC50 of 1.83 µM. In the case of `O=C(Nc1cc(F)c(F)cc1C(=O)NCCO)c1ccc(-n2ccnc2)nn1` [Compound 122], the EC50 is reported as 7.96 µM. Work on `COC(=O)c1n[nH]cc1NC(=O)c1ccc(-n2ccnc2)nn1` [Compound 123] yielded an EC50 of 2.99 µM. Work on `N=C(N)NCCC[C@H](NC(=O)c1cc(F)c(F)cc1NC(=O)c1ccc(-n2ccnc2)nn1)C(N)=O` [Compound 124] yielded an EC50 of 8.08 µM. `Cc1cc(NC(=O)c2ccc(-n3ccnc3)nn2)c(C(N)=O)cc1C` [Compound 125] was tested, and the EC50 was 9.62 µM. Work on `O=c1[nH]c(-c2ccc(-n3ccnc3)nn2)nc2cc(F)c(F)cc12` [Compound 126] yielded an EC50 of 1.12 µM. Work on `COC(=O)C1=C(NC(=O)c2ccc(-n3ccnc3)nn2)CC(C)(C)CC1` [Compound 127] yielded an EC50 of 7.3 µM. `CCOC(=O)C1=C(NC(=O)c2ccc(-n3ccnc3)nn2)CCOC1` [Compound 128] gave an EC50 of 4.35 µM. `CCOC(=O)C1=C(NC(=O)c2ccc(-n3ccnc3)nn2)COCC1` [Compound 129] was tested, and the EC50 was 10.7 µM. `O=C(O)C1=C(NC(=O)c2ccc(-n3ccnc3)nn2)CCCC1` [Compound 130] showed an EC50 of 14.8 µM. `CCOC(=O)C1=C(NC(=O)c2ccc(-n3ccnc3)nn2)CCC(F)(F)C1` [Compound 131] gave an EC50 of 3.48 µM. With `O=c1oc(-c2ccc(-n3ccnc3)nn2)nc2ccc(F)c(F)c12` [Compound 132] the EC50 was 4.28 µM. For `Cc1c(F)ccc2nc(-c3ccc(-n4ccnc4)nn3)oc(=O)c12` [Compound 133], the EC50 was 4.17 µM. In the case of `Cc1cc(C(N)=O)c(NC(=O)c2ccc(-n3ccnc3)nn2)cc1F` [Compound 134], the EC50 is reported as over 50 µM. `CCOC(=O)C1=C(NC(=O)c2ccc(-n3ccnc3)nn2)C[C@@H](C)O[C@H]1C` [Compound 135] gave an EC50 of 12.3 µM. Work on `COC(=O)C1=C(NC(=O)c2ccc(-n3ccnc3)nn2)CC(C)(C)OC1` [Compound 136] yielded an EC50 of 8.84 µM. In the case of `Cc1ccc2nc(-c3ccc(-n4ccnc4)nn3)oc(=O)c2n1` [Compound 137], the EC50 is reported as 9.33 µM. With `NC(=O)c1cc(Cl)c(Cl)cc1NC(=O)c1ccc(-n2ccnc2)nn1` [Compound 138] the EC50 was over 50 µM. `O=c1oc(-c2ccc(-n3ccnc3)nn2)nc2cc3c(cc12)OCCO3` [Compound 139] gave an EC50 of 2.52 µM. Compound `O=c1oc(-c2ccc(-n3ccnc3)nn2)nc2ccc(C(F)(F)F)nc12` [Compound 140] has an EC50 of about 25.1 µM. `O=c1oc(-c2ccc(-n3ccnc3)nn2)nc2cc3c(cc12)OC(F)(F)O3` [Compound 141] showed an EC50 of over 50 µM. `COC(=O)c1cc(O)c(F)cc1NC(=O)c1ccc(-n2ccnc2)nn1` [Compound 142] gave an EC50 of over 50 µM. Compound `CCOC(=O)c1c(F)ccc(F)c1NC(=O)c1ccc(-n2ccnc2)nn1` [Compound 143] has an EC50 of 9.71 µM. For `Nc1cc(F)c(F)cc1NC(=O)c1ccc(-n2ccnc2)nn1` [Compound 144], the EC50 was over 50 µM. In the case of `COC(=O)c1nc(C2CC2)c(F)cc1NC(=O)c1ccc(-n2ccnc2)nn1` [Compound 145], the EC50 is reported as 1.58 µM. For `O=C(Nc1cc(F)c(OC(F)(F)F)cc1C(=O)O)c1ccc(-n2ccnc2)nn1` [Compound 146], the EC50 was 2.18 µM. Compound `CN(O)C(=O)c1cc(F)c(F)cc1NC(=O)c1ccc(-n2ccnc2)nn1` [Compound 147] has an EC50 of 5.25 µM. `CCOC(=O)c1c(F)cc(F)c(F)c1NC(=O)c1ccc(-n2ccnc2)nn1` [Compound 148] showed an EC50 of 3.68 µM. With `COC(=O)c1cc(F)c(C)nc1NC(=O)c1ccc(-n2ccnc2)nn1` [Compound 149] the EC50 was 30.1 µM. With `O=C(Nc1cc(F)c(F)cc1C(=O)NO)c1ccc(-n2ccnc2)nn1` [Compound 150] the EC50 was 12.2 µM. Work on `COc1ccc(NC(=O)c2ccc(-n3ccnc3)nn2)c(C(=O)O)c1` [Compound 151] yielded an EC50 of 7.76 µM. For `COC(=O)c1ncc(C(F)(F)F)cc1NC(=O)c1ccc(-n2ccnc2)nn1` [Compound 152], the EC50 was about 1.27 µM. Work on `CCOC(=O)c1nc2ccccc2cc1NC(=O)c1ccc(-n2ccnc2)nn1` [Compound 153] yielded an EC50 of 0.043 µM. Compound `O=C(Nc1cc2ccccc2nc1C(=O)O)c1ccc(-n2ccnc2)nn1` [Compound 154] has an EC50 of about 10.4 µM. `CCOC(=O)C1=C(NC(=O)c2ccc(-n3ccnc3)nn2)C2CCC1O2` (stereo not drawn) [Compound 155] showed an EC50 of over 50 µM. In the case of `COC(=O)c1cccc(F)c1NC(=O)c1ccc(-n2ccnc2)nn1` [Compound 156], the EC50 is reported as over 50 µM. Compound `O=C(Nc1cc(Cl)nnc1C(=O)O)c1ccc(-n2ccnc2)nn1` [Compound 157] has an EC50 of over 50 µM. `O=C(Nc1ccc(F)cc1C(=O)O)c1ccc(-n2ccnc2)nn1` [Compound 158] was tested, and the EC50 was over 20 µM. `COC(=O)c1ccc(C(=O)OC)c(NC(=O)c2ccc(-n3ccnc3)nn2)c1` [Compound 159] showed an EC50 of over 20 µM. Work on `COC(=O)c1cc(C(C)C)ccc1NC(=O)c1ccc(-n2ccnc2)nn1` [Compound 160] yielded an EC50 of 3.84 µM. In the case of `O=c1oc(-c2ccc(-n3ccnc3)nn2)nc2ccc(S(F)(F)(F)(F)F)cc12` [Compound 161], the EC50 is reported as over 20 µM. `COC(=O)c1ccccc1NC(=O)c1ccc(-n2ccnc2)nn1` [Compound 162] was tested, and the EC50 was 0.956 µM. For `CCN(CC)CC(C)(C)NC(=O)c1cc(F)c(F)cc1NC(=O)c1ccc(-n2ccnc2)nn1` [Compound 163], the EC50 was 16.6 µM. `N#Cc1ccc(C(=O)O)c(NC(=O)c2ccc(-n3ccnc3)nn2)c1` [Compound 165] was tested, and the EC50 was 4.09 µM. In the case of `COC(=O)c1nc(OC)cnc1NC(=O)c1ccc(-n2ccnc2)nn1` [Compound 166], the EC50 is reported as 12.1 µM. Work on `Cn1ncc2cc(C(=O)O)c(NC(=O)c3ccc(-n4ccnc4)nn3)cc21` [Compound 167] yielded an EC50 of 14.9 µM.
